This is an account of results in PubChem BioAssay AID264 (DTP/NCI, 2004).

The assay relates to nude mice, LX-1 lung xenograft intrarenal, tumor weight T/C. The experiment in a line: NCI In Vivo Anticancer Drug Screen. Data for tumor model Human Lung LX-1 Xenograft (intrarenal inoculation) in NU/NU Swiss (nude) mice. The settings on record: endpoint: mean tumor weight change, higher = larger tumour. An outline of the steps:
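Readout: T/C, i.e. treated-group tumor measurement over vehicle-control measurement. Mice bearing transplantable tumors were dosed with compound or vehicle.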

Where [1] appears, read: dose: 25.0 mg/kg/injection, schedule: Q01DX010 (sc), vehicle: suspension in saline.

Where “and” joins values, the source holds several entries; their conditions need not be identical. Identical values can stand only once. Results filed as inconclusive are left out.

As to `C/C(=N/NC(N)=S)c1ccc2ccccc2c1`, the T/C is, setting by setting: (dose: 12.5 mg/kg/injection, schedule: Q01DX010 (sc), vehicle: saline with Tween-80) 63 % of control; (dose: 25.0 mg/kg/injection, schedule: Q01DX010 (sc), vehicle: saline with Tween-80) 42 % of control; (dose: 200.0 mg/kg/injection, schedule: Q01DX010 (sc), vehicle: saline with Tween-80) 61 % of control; (dose: 400.0 mg/kg/injection, schedule: Q01DX010 (sc), vehicle: saline with Tween-80) 39 % of control.

For the molecule `N#CC(=C1SCS1)[N+](=O)[O-]`, the T/C was 79 % of control (dose: 6.0 mg/kg/injection, schedule: Q04DX003 (sc), vehicle: saline); 103 % of control (dose: 12.0 mg/kg/injection, schedule: Q04DX003 (sc), vehicle: saline); 109 % of control (dose: 24.0 mg/kg/injection, schedule: Q04DX003 (sc), vehicle: saline); 94 % of control (dose: 48.0 mg/kg/injection, schedule: Q04DX003 (sc), vehicle: saline).

Turning to `Cc1cc(NS(=O)(=O)c2ccc(N=Nc3cc(N=Nc4ccc(S(=O)(=O)Nc5cc(C)nc(C)n5)cc4)c4c(NC(=O)C(Cl)Cl)cccc4c3OC(=O)C(Cl)Cl)cc2)nc(C)n1` (tested in a mixture with another compound), the T/C was 95 % of control (dose: 600.0 mg/kg/injection, schedule: Q04DX003 (sc), vehicle: suspension in saline); 115 % of control (dose: 1200.0 mg/kg/injection, schedule: Q04DX003 (sc), vehicle: suspension in saline); 121 % of control (dose: 2400.0 mg/kg/injection, schedule: Q04DX003 (sc), vehicle: suspension in saline).

On to `COC(=O)[C@@]12OC[C@]34[C@H]([C@@H](O)[C@@H]1O)[C@@]1(C)CC(=O)C(O)=C(C)[C@@H]1C[C@H]3OC(=O)[C@H](OC(=O)/C=C(\C)C(C)C)[C@@H]24`, for which the T/C by setting is: (dose: 0.25 mg/kg/injection, schedule: Q04DX003 (sc), vehicle: saline + alcohol) 115 % of control; (dose: 0.5 mg/kg/injection, schedule: Q01DX010 (sc), vehicle: saline + alcohol) 101 % of control; (dose: 0.5 mg/kg/injection, schedule: Q04DX003 (sc), vehicle: saline + alcohol) 91 % of control; (dose: 1.0 mg/kg/injection, schedule: Q04DX003 (sc), vehicle: saline + alcohol) 114 % of control; (dose: 2.0 mg/kg/injection, schedule: Q04DX003 (sc), vehicle: saline + alcohol) 59 % of control.

Consider `CCOC(=O)[C@]1(Br)CC[C@@]1(Br)C(=O)OCC`, for which the T/C is 107 % of control (dose: 800.0 mg/kg/injection, schedule: Q04DX003 (sc), vehicle: saline with Tween-80) and 123 % of control (dose: 1200.0 mg/kg/injection, schedule: Q04DX003 (sc), vehicle: saline with Tween-80).

Consider `O=C(O)CC(=O)O.[NH-]C1CCCCC1[NH-].[Pt+2]` (stereo not drawn), for which the T/C was 187 % of control and 247 % of control (dose: 5.0 mg/kg/injection, schedule: Q01DX010 (sc), vehicle: dextrose); 92 % of control (dose: 10.0 mg/kg/injection, schedule: Q01DX010 (sc), vehicle: dextrose).

In the case of `CC1OC(=O)C(C(C)C)NC(=O)C(C(C)C)OC(=O)C(C(C)C)NC(=O)C(C)OC(=O)C(C(C)C)NC(=O)C(C(C)C)OC(=O)C(C(C)C)NC(=O)C(C)OC(=O)C(C(C)C)NC(=O)C(C(C)C)OC(=O)C(C(C)C)NC1=O` (stereo not drawn), the T/C (dose: 5.0 mg/kg/injection, schedule: Q01DX010 (ip), vehicle: saline with Tween-80) is 44 % of control; the T/C (dose: 5.0 mg/kg/injection, schedule: Q01DX010 (sc), vehicle: saline with Tween-80) was 107 % of control; the T/C (dose: 10.0 mg/kg/injection, schedule: Q01DX010 (ip), vehicle: saline with Tween-80) is 28 % of control; the T/C (dose: 16.66 mg/kg/injection, schedule: Q04DX003 (ip), vehicle: saline with Tween-80) was 56 % of control; the T/C (dose: 16.66 mg/kg/injection, schedule: Q04DX003 (sc), vehicle: saline with Tween-80) is 179 % of control; the T/C (dose: 33.33 mg/kg/injection, schedule: Q04DX003 (sc), vehicle: saline with Tween-80) was 94 % of control. The T/C was 37 % of control (dose: 66.65 mg/kg/injection, schedule: Q04DX003 (ip), vehicle: saline with Tween-80) and 119 % of control (dose: 66.65 mg/kg/injection, schedule: Q04DX003 (sc), vehicle: saline with Tween-80).

With `c1cc(NC2CCCCC2)ccc1CN1CCOCC1`, the T/C by setting is: (dose: 50.0 mg/kg/injection, schedule: Q01DX010 (sc), vehicle: saline + Tween-80 + alcohol) 38 % of control; (dose: 100.0 mg/kg/injection, schedule: Q01DX010 (sc), vehicle: saline + Tween-80 + alcohol) 74 % of control; (dose: 800.0 mg/kg/injection, schedule: Q01DX010 (sc), vehicle: saline + Tween-80 + alcohol) 84 % of control; (dose: 1600.0 mg/kg/injection, schedule: Q01DX010 (sc), vehicle: saline + Tween-80 + alcohol) 84 % of control.

For `ClCc1ccc2ccccc2n1`, the T/C runs as follows: (dose: 150.0 mg/kg/injection, schedule: Q04DX003 (sc), vehicle: saline with Tween-80) 158 % of control; (dose: 300.0 mg/kg/injection, schedule: Q04DX003 (sc), vehicle: saline with Tween-80) 105 % of control; (dose: 600.0 mg/kg/injection, schedule: Q04DX003 (sc), vehicle: saline with Tween-80) 77 % of control.

For `COC12C(COC(N)=O)C3=C(C(=O)C(C)=C(N)C3=O)N1CC1C2N1C` (stereo not drawn), for the setting “dose: 8.0 mg/kg/injection, schedule: Q01DX010 (sc), vehicle: saline”, the T/C was 1 % of control and -17 % of control.

As to `Cc1ncc(CNC(=O)N(CCCl)N=O)c(N)n1`, for the setting “dose: 18.75 mg/kg/injection, schedule: Q04DX003 (sc), vehicle: saline”, the T/C is 61 % of control.

As to `C=C(C)[C@H]1CN[C@H](C(=O)O)[C@H]1CC(=O)O`, the T/C reads like this: (dose: 10.0 mg/kg/injection, schedule: Q04DX003 (sc), vehicle: saline) 164 % of control; (dose: 20.0 mg/kg/injection, schedule: Q04DX003 (sc), vehicle: saline) 97 % of control.

In the case of `C=C(OP(=O)(OC)OC)Sc1ccccc1C`, the T/C was 68 % of control (dose: 100.0 micrograms/kg/injection, schedule: Q04DX003 (sc), vehicle: Klucel (hydroxypropylcellulose) (HPC)); 68 % of control (dose: 200.0 micrograms/kg/injection, schedule: Q04DX003 (sc), vehicle: Klucel (hydroxypropylcellulose) (HPC)); 67 % of control (dose: 400.0 micrograms/kg/injection, schedule: Q04DX003 (sc), vehicle: Klucel (hydroxypropylcellulose) (HPC)); 79 % of control (dose: 800.0 micrograms/kg/injection, schedule: Q04DX003 (sc), vehicle: Klucel (hydroxypropylcellulose) (HPC)).

On to `C/C(=C\c1ccccc1)[N+](=O)[O-]`, for which the T/C (dose: 6.25 mg/kg/injection, schedule: Q01DX010 (sc), vehicle: Klucel (hydroxypropylcellulose) (HPC)) is 60 % of control; the T/C (dose: 12.5 mg/kg/injection, schedule: Q01DX010 (sc), vehicle: Klucel (hydroxypropylcellulose) (HPC)) was 56 % of control; the T/C (dose: 100.0 mg/kg/injection, schedule: Q01DX010 (sc), vehicle: Klucel (hydroxypropylcellulose) (HPC)) was 159 % of control; the T/C (dose: 200.0 mg/kg/injection, schedule: Q01DX010 (sc), vehicle: Klucel (hydroxypropylcellulose) (HPC)) is 196 % of control.

In the case of `CC[N](CC)[Ge]([CH2]C)[CH2]C.CC[N](CC)[Ge]([CH2]C)[CH2]C`, the T/C runs as follows: (dose: 12.5 mg/kg/injection, schedule: Q01DX010 (sc), vehicle: suspension in saline) 67 % of control; under setting [1], 89 % of control; (dose: 50.0 mg/kg/injection, schedule: Q01DX010 (sc), vehicle: suspension in saline) 77 % of control.

Take `CN(C)C(=O)c1cccc(COc2ccc(N3C(N)=NC(N)=NC3(C)C)cc2Cl)c1`: the T/C is 85 % of control (dose: 6.25 mg/kg/injection, schedule: Q01DX010 (sc), vehicle: saline); 57 % of control (dose: 12.5 mg/kg/injection, schedule: Q01DX010 (sc), vehicle: saline); 25 % of control (dose: 25.0 mg/kg/injection, schedule: Q01DX010 (sc), vehicle: saline); 91 % of control under setting [1].

As to `Cc1cc(N(CC(C)Br)CC(C)Br)ccc1N=Nc1ccccc1C(=O)O` (stereo not drawn), the T/C is 85 % of control (dose: 3.13 mg/kg/injection, schedule: Q01DX010 (sc), vehicle: saline with Tween-80) and 151 % of control (dose: 6.25 mg/kg/injection, schedule: Q01DX010 (sc), vehicle: saline with Tween-80).

As for `COc1cccc2c1C(=O)c1c(O)c3c(c(O)c1C2=O)CC(O)(/C(C)=N/NC(=O)CCCCC(=O)N/N=C(\C)C1(O)Cc2c(O)c4c(c(O)c2C(OC2CC(N)C(O)C(C)O2)C1)C(=O)c1c(OC)cccc1C4=O)CC3OC1CC(N)C(O)C(C)O1` (stereo not drawn), the T/C was 28 % of control (dose: 12.5 mg/kg/injection, schedule: Q04DX003 (sc), vehicle: water) and 19 % of control (dose: 100.0 mg/kg/injection, schedule: Q04DX003 (sc), vehicle: water).
